{"source": "patent US20210361673A1", "about": "“COMPOSITIONS AND METHODS OF TREATING VIRAL INFECTIONS” (Lipocine Inc., priority 2020, published 2021)", "experiment": "Mean marker change from baseline after treatment (TU, TT 14-day, TD single dose, TU depot injection, topical T after 7 days)", "assay_type": "in vivo", "conditions": "for Cmax to mean Cave ratio: range calculated from the average low and average high for the 5 arms tested", "source_text": "The mean marker change from baseline in the foregoing tables can be measured at various times including: hours after treatment commences, 7 to 14 days after treatment commences, and during treatment.\nA-E are all the 14-day timepoint\nTU Depot Injection—after Single Dose", "note": "Marks after values point to notes of the source that are not given here."}
{"smiles": "CCCCCCCCCCCCC(=O)O[C@H]1CC[C@H]2[C@@H]3CCC4=CC(=O)CC[C@]4(C)[C@H]3CC[C@]12C", "note": "[TT, testosterone tridecanoate]", "values": [{"measurement": "Mean marker change from baseline in serum (e.g. IL-2, IL-6, TNF-Alpha, CRP, SHBG, MCP-1, AST, ALT, ALP)", "setting": "total daily TT dose 300 mg", "result": "−5% to −35%"}, {"measurement": "Cmax to mean Cave ratio", "setting": "total daily TT dose 300 mg", "result": "1.72-3.08*"}, {"measurement": "Mean marker change from baseline in serum (e.g. IL-2, IL-6, TNF-Alpha, CRP, SHBG, MCP-1, AST, ALT, ALP)", "setting": "total daily TT dose 2700 mg", "result": "−5% to −35%"}, {"measurement": "Cmax to mean Cave ratio", "setting": "total daily TT dose 2700 mg", "result": "1.72-3.09*"}]}
